Among the data in US20240043403A1, “HETEROARYL CARBOXAMIDE COMPOUND” (Astellas Pharma Inc., priority 2020, published 2024) are IC50 values, retold here.

Chain of human recombinant DGK ξ (Q13574 whole entry): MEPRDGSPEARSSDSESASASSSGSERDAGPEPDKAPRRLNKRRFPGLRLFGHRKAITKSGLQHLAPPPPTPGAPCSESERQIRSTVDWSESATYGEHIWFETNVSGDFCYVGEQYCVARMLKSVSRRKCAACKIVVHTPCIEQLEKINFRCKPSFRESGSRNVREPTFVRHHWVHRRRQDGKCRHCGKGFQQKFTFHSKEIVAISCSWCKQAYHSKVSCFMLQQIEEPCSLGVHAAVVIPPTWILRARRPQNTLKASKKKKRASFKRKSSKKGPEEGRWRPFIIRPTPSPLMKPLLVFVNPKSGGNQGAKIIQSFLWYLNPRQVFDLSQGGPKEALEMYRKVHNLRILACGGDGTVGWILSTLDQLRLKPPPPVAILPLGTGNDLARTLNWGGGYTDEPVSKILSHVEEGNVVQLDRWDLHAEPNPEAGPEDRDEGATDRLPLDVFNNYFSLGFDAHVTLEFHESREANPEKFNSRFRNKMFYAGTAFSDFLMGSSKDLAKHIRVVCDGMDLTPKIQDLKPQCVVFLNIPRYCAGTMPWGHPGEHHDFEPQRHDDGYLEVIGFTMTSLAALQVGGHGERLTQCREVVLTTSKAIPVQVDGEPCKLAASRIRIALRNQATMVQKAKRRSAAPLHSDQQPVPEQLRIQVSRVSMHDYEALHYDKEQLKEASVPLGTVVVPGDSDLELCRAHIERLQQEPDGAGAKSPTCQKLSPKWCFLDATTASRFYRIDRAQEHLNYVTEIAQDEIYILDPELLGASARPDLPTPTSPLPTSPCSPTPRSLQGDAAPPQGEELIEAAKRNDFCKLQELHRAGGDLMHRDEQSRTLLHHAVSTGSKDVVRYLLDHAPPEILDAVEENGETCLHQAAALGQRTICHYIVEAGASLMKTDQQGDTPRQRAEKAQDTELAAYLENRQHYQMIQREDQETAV

The test has as its target human recombinant DGK ξ (Homo sapiens (Human), UniProt Q13574). Nature of the test: Evaluation of DGK ξ inhibitory effect (ADP-Glo Kinase Assay). In kind it is biochemical. The conditions noted are these: ADP-Glo luminescence. On the procedure:
Test Example 1. Evaluation of DGK ξ Inhibitory Effect
The inhibitory effect of a test compound on human recombinant DGK ξ (Cama Biosciences, Inc., 12-410-20N) was examined by the following method in which detection is performed with ADP-Glo™ Kinase Assay (Promega Corporation).
To a 384-well plate (Greiner Bio-One Co., Ltd.), 3 μL of a DGK ξ enzyme dissolved in an assay buffer (40 mM Tris-HCl pH 7.5, 10 mM MgCl2, 1 mM dithiothreitol (DTT) and 0.1 mg/mL bovine serum albumin (BSA)) (90 ng/mL) was added, and 3 μL of the test compound diluted with the same assay buffer was added so that an intended final concentration was obtained. The mixture was left standing at room temperature for 15 minutes, 3 μL of a substrate (150 μM 1-oleoyl-2-acetyl-sn-glycerol (Sigma-Aldrich Co. LLC), 480 μM phosphatidylserine (Avanti, Inc.) and 150 μM UltraPure-ATP (attached to ADP-Glo)) was then added, and the mixture was left standing at room temperature for 30 minutes to react. Thereafter, 3 μL of an ADP-Glo Reagent was added, and the mixture was left standing at room temperature for 40 minutes to stop the enzyme reaction. Further, 6 μL of a Kinase-Detection Reagent was added, the mixture was left standing at room temperature for 30 minutes, and the luminescence was then measured using ARVO X3 (PerkinElmer, Inc.). The half maximal inhibitory concentration (IC50) was calculated by Sigmoid-Emax model non-linear regression analysis, where the signal value in solvent treatment was set to 0% inhibition and the signal value without addition of the DGK ξ enzyme was set to 100% inhibition. […] In the table. Ex represents the number of each Example described below.
(In general: ADP-Glo first removes unused ATP, then detects ADP through luciferase.)
In the case of `CNC[C@H]1CN(c2c(NC(=O)c3ccn(-c4ccnnc4)n3)ccc(Oc3ccccc3F)c2Cl)CCN1C` [Example 125], the IC50 was 0.0018 µM.
The value for `NCCCn1cc(-c2c(NC(=O)c3ccn(-c4ccnnc4)n3)ccc(OC3CCC3)c2C(F)(F)F)cn1` [Example 74] was 0.016 µM; that for `CN1CCN(c2c(NC(=O)c3ccn(-c4ccnnc4)n3)ccc(Oc3ccccc3F)c2C(F)(F)F)C[C@@H]1CNC1CC1` [Example 89] was 0.027 µM.
The value for `CNCCOc1cc(-c2c(NC(=O)c3coc(-c4ccnnc4)n3)ccc(OC3CC3)c2C(F)(F)F)ccn1` [Example 70] was 0.055 µM.
The value for `COCCNC[C@@H]1CCCN(c2c(NC(=O)c3ccn(-c4ccnnc4)n3)ccc(Oc3ccccc3F)c2C(F)(F)F)C1` [Example 64] was 0.013 µM; that for `NC[C@]1(F)CCCN(c2c(NC(=O)c3ccn(-c4ccnnc4)n3)ccc(Oc3ccccc3F)c2C(F)(F)F)C1` [Example 126, N-{2-[(3R)-3-(aminomethyl)-3-fluoropiperidin-1-yl]-4-(2-fluorophenoxy)-3-(trifluoromethyl)phenyl}-1-(pyridazin-4-yl)-1H-pyrazole-3-carboxamide monobutanedioate] was 0.0062 µM.
As for `NCCOc1cc(-c2c(NC(=O)c3coc(-c4ccnnc4)n3)ccc(OC3CCC3)c2C(F)(F)F)ccn1` [Example 67], the IC50 was determined as 0.035 µM.
The value for `CN(C)C[C@H]1CN(c2c(NC(=O)c3coc(-c4ccnnc4)n3)ccc(Oc3ccccc3)c2C(F)(F)F)CCN1C` [Example 116] was 0.044 µM; that for `NC[C@@H]1CCCN(c2c(NC(=O)c3ccn(CC(F)F)n3)ccc(Oc3ccc(F)cc3)c2C(F)(F)F)C1` [Example 8] was 0.088 µM.
With `CNC[C@H]1CN(c2c(NC(=O)c3ccn(-c4ccnnc4)n3)ccc(C3CCCC3)c2C(F)(F)F)CCN1C` [Example 124], the IC50 came out at 0.0038 µM.
For the compound `CN1CCN(c2c(NC(=O)c3coc(-c4ccnnc4)n3)ccc(OC3CCCC3)c2C(F)(F)F)C[C@@H]1CN` [Example 41], the IC50 stood at 0.005 µM.
As for `Cc1cn(-c2ccnnc2)nc1C(=O)Nc1ccc(Oc2ccccc2F)c(C(F)(F)F)c1N1CCC[C@@H](CN)C1` [Example 39], the IC50 was determined as 0.039 µM.
The result for `CNC[C@H]1CN(c2c(NC(=O)c3cnn(-c4ccnnc4)n3)ccc(Oc3ccccc3Cl)c2C(F)(F)F)CCN1C` [Example 97] reads 0.012 µM; that for `NC[C@@H]1CCCN(c2c(NC(=O)c3ccn(-c4ccnnc4)n3)ccc(-c3ccccc3F)c2C(F)(F)F)C1` [Example 43], 0.03 µM; that for `CNC[C@H]1CN(c2c(NC(=O)c3ccn(-c4ccnnc4)n3)ccc(Oc3ccccc3Cl)c2C(F)(F)F)CCN1C` [Example 87], 0.0041 µM.
The result for `CNC[C@H]1CN(c2c(NC(=O)c3ccn(CC(F)F)n3)ccc(Oc3ccccc3Cl)c2C(F)(F)F)CCN1C` [Example 24] reads 0.036 µM.
The result for `CNC[C@H]1CN(c2c(NC(=O)c3ccn(CC(F)F)n3)ccc(Oc3ccccc3F)c2C(F)(F)F)CCN1C` [Example 23] reads 0.063 µM; that for `CN1CCN(c2c(NC(=O)c3ccn(-c4ccnnc4)n3)ccc(Oc3ccccc3F)c2C(F)(F)F)C[C@@H]1CN` [Example 38], 0.0041 µM.
For `NC[C@@H]1CCCN(c2c(NC(=O)c3ccn(CC(F)F)n3)ccc(Oc3ccccc3)c2C(F)(F)F)C1` [Example 2], the IC50 amounted to 0.028 µM.
The result for `NC[C@@H]1CCCN(c2c(NC(=O)c3ccn(-c4ccnnc4)n3)ccc(OC3CC3)c2-c2ccccc2)C1` [Example 63] reads 0.07 µM.
The value for `CNC[C@H]1CN(c2c(NC(=O)c3coc(-c4ccnnc4)n3)ccc(C3CCCC3)c2C(F)(F)F)CCN1C` [Example 49] was 0.0078 µM; that for `CN1CCN(c2c(NC(=O)c3coc(-c4ccnnc4)n3)ccc(Oc3ccccc3Cl)c2Cl)C[C@@H]1CN` [Example 57] was 0.00042 µM.
The value for `CN(C)[C@@H]1CCN2CCN(c3c(NC(=O)c4coc(-c5ccnnc5)n4)ccc(Oc4ccccc4)c3C(F)(F)F)C[C@@H]12` [Example 115] was 0.0079 µM; that for `CN(C)CCOc1cc(-c2c(NC(=O)c3coc(-c4ccnnc4)n3)ccc(OC3CCC3)c2C(F)(F)F)ccn1` [Example 113, N-[4-(cyclobutyloxy)-2-{2-[2-(dimethylamino)ethoxy]pyridin-4-yl}-3-(trifluoromethyl)phenyl]-2-(pyridazin-4-yl)-1,3-oxazole-4-carboxamide] was 0.021 µM; that for `CNC[C@H]1CN(c2c(NC(=O)c3ccn(CC(F)F)n3)cc(F)c(Oc3ccccc3)c2F)CCN1C` [Example 107] was 0.22 µM.
On to `NC[C@@H]1CCCN(c2c(NC(=O)c3cccn(CC(F)F)c3=O)ccc(Oc3ccccc3F)c2C(F)(F)F)C1` [Example 11], for which the IC50 was 0.035 µM.
Consider `CN(C)[C@@H]1CCN2CCN(c3c(NC(=O)c4coc(-c5ccnnc5)n4)ccc(OC4CC4)c3C(F)(F)F)C[C@@H]12` [Example 119], for which the IC50 was 0.041 µM.
In the case of `CN1CCN(c2c(NC(=O)c3ccn(CC(F)F)n3)ccc(Oc3ccccc3F)c2C(F)(F)F)C[C@H]1CN` [Example 19], the IC50 came to 0.96 µM.
The value for `CN1CCN(c2c(NC(=O)c3ccn(CC(F)F)n3)ccc(OC3CCC3)c2C(F)(F)F)C[C@@H]1CN` [Example 17] was 0.19 µM.
The result for `NC[C@@H]1CCCN(c2c(NC(=O)c3ccn(C(F)F)n3)ccc(Oc3ccccc3)c2C(F)(F)F)C1` [Example 3] reads 0.15 µM.
The result for `NC[C@@H]1CCCN(c2c(NC(=O)c3ccn(-c4ccnnc4)n3)ccc(Oc3ccccc3Cl)c2C(F)(F)F)C1` [Example 33] reads 0.0048 µM.
As for `CN(C)[C@@H]1CCN2CCN(c3c(NC(=O)c4ccn(-c5ccnnc5)n4)ccc(OC4CC4)c3C(F)(F)F)C[C@@H]12` [Example 121], the IC50 turned out to be 0.014 µM.
As for `NC[C@@H]1CCCN(c2c(NC(=O)c3cccn(CC(F)(F)F)c3=O)ccc(Oc3ccccc3)c2C(F)(F)F)C1` [Example 110], the IC50 was 0.19 µM.
`Cc1cc(C(=O)Nc2ccc(Oc3ccccc3)c(C(F)(F)F)c2N2CCC[C@@H](CN)C2)nn1-c1ccnnc1` [Example 35]: the IC50 came to 0.045 µM.
The value for `Cc1ccccc1Oc1ccc(NC(=O)c2ccn(-c3ccnnc3)n2)c(N2CCC[C@@H](CN)C2)c1C(F)(F)F` [Example 62] was 0.0069 µM; that for `NC[C@@H]1CCCN(c2c(NC(=O)c3ccn(CC(F)(F)F)n3)ccc(Oc3ccccc3)c2C(F)(F)F)C1` [Example 109, N-{2-[(3S)-3-(aminomethyl)piperidin-1-yl]-4-phenoxy-3-(trifluoromethyl)phenyl}-1-(2,2,2-trifluoroethyl)-1H-pyrazole-3-carboxamide] was 0.11 µM; that for `NCC1(F)CCCN(c2c(NC(=O)c3ccn(-c4ccnnc4)n3)ccc(Oc3ccccc3F)c2C(F)(F)F)C1` (stereo not shown) [Example 58] was 0.021 µM.
Turning to `O=C(Nc1ccc(OC2CC2)c(C(F)(F)F)c1-c1cnn(C2CCNCC2)c1)c1ccn(-c2ccnnc2)n1` [Example 72], the IC50 is 0.062 µM.
The result for `CNC[C@H]1CN(c2c(NC(=O)c3coc(-c4ccnnc4)n3)ccc(OC3CCC3)c2C(F)(F)F)CCN1C` [Example 100] reads 0.06 µM.
The result for `CNC[C@H]1CN(c2c(NC(=O)c3ccn(-c4ccnnc4)n3)ccc(Oc3ccc(F)cc3F)c2C(F)(F)F)CCN1C` [Example 96] reads 0.03 µM; that for `CN1CCN(c2c(NC(=O)c3ccn(CC(F)F)n3)ccc(Oc3ccc(F)cc3)c2C(F)(F)F)C[C@@H]1CN` [Example 28], 0.24 µM; that for `CN1CCN(c2c(NC(=O)c3ccn(-c4ccnnc4)n3)ccc(Oc3ccccc3Cl)c2C(F)(F)F)C[C@@H]1CN` [Example 46], 0.0031 µM.
The value for `CNC[C@H]1CN(c2c(NC(=O)c3ccn(CC(F)F)n3)ccc(C3CCCC3)c2C(F)(F)F)CCN1C` [Example 14] was 0.15 µM; that for `CNC[C@H]1CN(c2c(NC(=O)c3ccn(CC(F)F)n3)ccc(Oc3ccccc3F)c2Cl)CCN1C` [Example 27] was 0.037 µM; that for `CNC[C@H]1CN(c2c(NC(=O)c3coc(-c4ccnnc4)n3)ccc(-c3ccccc3F)c2C(F)(F)F)CCN1C` [Example 60] was 0.027 µM.
As for `NCCOc1cc(-c2c(NC(=O)c3coc(-c4ccnnc4)n3)ccc(OC3CC3)c2C(F)(F)F)ccn1` [Example 68], the IC50 was 0.024 µM.
The result for `CNC[C@H]1CN(c2c(NC(=O)c3ccn(-c4ccnnc4)n3)ccc(Oc3ccccc3Cl)c2Cl)CCN1C` [Example 94] reads 0.0014 µM; that for `CNC[C@H]1CN(c2c(NC(=O)c3ccn(-c4ccnnc4)n3)ccc(OC3CCCC3)c2C(F)(F)F)CCN1C` [Example 44], 0.0086 µM; that for `CN1CCN(c2c(NC(=O)c3ccn(-c4ccnnc4)n3)ccc(Oc3ccc(F)cc3)c2C(F)(F)F)C[C@@H]1CN` [Example 52], 0.046 µM.
As to `N#Cc1ccccc1Oc1ccc(NC(=O)c2ccn(CC(F)F)n2)c(N2CCC[C@@H](CN)C2)c1C(F)(F)F` [Example 32], the IC50 came to 0.1 µM.
In the case of `CNC[C@H]1CN(c2c(NC(=O)c3ccn(-c4ccnnc4)n3)ccc(OC3CC3)c2C(F)(F)F)CCN1C` [Example 88], the IC50 was determined as 0.11 µM.
The value for `CNC[C@H]1CN(c2c(NC(=O)c3ccn(CC(F)F)n3)ccc(Oc3ccccc3Cl)c2Cl)CCN1C` [Example 26] was 0.019 µM.

In general, IC50 refers to the midpoint of a concentration-inhibition curve.
